Among the data in ChEMBL document CHEMBL5661955, “ASAP - In vitro cytotoxicity” (2024) are CC50 and CC10 values, retold here.

Data set [1] is described as follows: Functional metabolic assay to measure dose dependent changes in cell viability from drug treatment in Vero E6/TMPRSS2 cells. Cells are treated with antiviral candidates that have been serially diluted. Cytotoxicity is reported via measuring absorbance and analysis of MTT/MTS assays in uninfected cells. The assay has been performed by Icahn School of Medicine at Mount Sinai. The settings on record: chlorocebus sabaeus; for CC50: Vero E6/TMPRSS2 cells; for CC10: veroe6/tmprss2. It is filed as toxicity, cell-based, VeroE6/TMPRSS2. (In general: Formazan colour is commonly taken as a measure of viable cells.)

Data set [2] can be described thus: Functional metabolic assay to measure dose dependent changes in cell viability from drug treatment in Vero E6/TMPRSS2 cells (cotreated with P-gp inhibitor, Elacridar). […] Cytotoxicity is reported via measuring absorbance and analysis of MTT/MTS assays in uninfected cells. The assay has been performed by Icahn School of Medicine at Mount Sinai. It is filed as toxicity, cell-based, VeroE6/TMPRSS2. The settings on record: chlorocebus sabaeus, p-gp concentration 2 uM.

Data set [3] in a line: Functional CPE-based assay to measure dose dependent changes in cell viability from drug treatment in Vero E6 miRFP670 cells. Cells are treated with antiviral candidates that have been serially diluted. Cytotoxicity is reported via analysis of MTS assays in uninfected cells. The assay has been performed by KU Leuven. It is filed as toxicity, Vero C1008. The settings on record: chlorocebus sabaeus.

A short description of data set [4]: Functional CPE-based assay to measure dose dependent changes in cell viability from drug treatment in Vero E6 miRFP670 cells (cotreated with P-gp inhibitor, CP100356). Cells are treated with antiviral candidates that have been serially diluted. Cytotoxicity is reported via analysis of MTS assays in uninfected cells. The assay has been performed by KU Leuven. It is filed as toxicity, Vero C1008. The note with it: chlorocebus sabaeus.

Data set [5] can be described thus: Functional assay to measure dose dependent changes in cell viability from drug treatment in Vero E6 miRFP670 cells (cotreated with P-gp inhibitor, CP100356) that are infected with Dengue virus type 2 New Guinea C. […] Cytotoxicity is reported via via analysis of DAPI count using high-content imager. The assay has been performed by KU Leuven. Format: toxicity, cell-based, Vero C1008. The note with it: chlorocebus sabaeus, p-gp concentration 500 nM.

Data set [6] can be described thus: Functional CPE-based assay to measure dose dependent changes in cell viability from drug treatment in Huh-7 cells. Cells are treated with antiviral candidates that have been serially diluted. Cytotoxicity is reported via analysis of MTT/ MTS assays in uninfected cells. The assay has been performed by National Institute of Allergy and Infectious Diseases. It is filed as toxicity. The settings on record: human.

Where [7] appears, read: Vero E6/TMPRSS2 cells, with Elacridar (P-gp inhibitor, concentration not stated).
The mark [8] stands for this setting: Vero E6 miRFP670 cells, with CP100356 (P-gp inhibitor, concentration not stated), p-gp concentration 500 nM.
Setting [9] is: with CP100356 (P-gp inhibitor, concentration not stated).
The mark [10] stands for this setting: vero c1008, p-gp concentration 500 nM.

Each structure is given as a SMILES string. Values joined by “and” are separate entries in the source; they are usually repeats but may differ in a detail not shown here. Equal entries are not always repeated.

For the compound `O=C(Nc1cc(Cl)cc(C(=O)Nc2cccc(-c3nnn[nH]3)c2)c1)OCc1ccccc1`, the half-maximal cytotoxic concentration (CC50) in data set [1] and in data set [2] (setting [7]) was greater than 50 µM in each case. For the same compound, the CC10 in data set [1] was greater than 50 µM; in data set [2] (veroe6/tmprss2) it was 0.117 µM.
For `O=C(Nc1cc(Cl)cc(C(=O)Nc2ccc(C3CCNCC3)cc2)c1)OCc1ccccc1`, the CC50 is 2.82 µM in data set [3] (Vero E6 miRFP670 cells), 1.43 µM in data set [4] (setting [8]) and 3.1 µM in data set [5] (setting [9]).
`CCc1cc(C(=O)Nc2cccc(CN)c2)sc1-c1ccc(Cl)cc1`: the values for the CC50 in data set [3] (Vero E6 miRFP670 cells), in data set [1] and in data set [2] (setting [7]) were 4.86 µM, 13.9 µM and 9.12 µM, respectively. The CC10 was found to be 15.317 µM in data set [1] and 0.452 µM in data set [2] (veroe6/tmprss2).
For `NCc1cccc(NC(=O)C[C@@H](NC(=O)OCc2ccccc2)c2ccc(OCc3ccccc3)cc2)c1`, the results for the 50% cytotoxic concentration (CC50) in data set [6] and in data set [5] (setting [9]) were 6.1 µM and greater than 10 µM, respectively.
For the compound `O=C(Nc1cc(Cl)cc(C(=O)Nc2ccc3c(c2)CNC3)c1)OCc1ccccc1`, the CC50 is 9.29 µM in data set [3] (Vero E6 miRFP670 cells); 16.6 µM in data set [1]; > 10 µM and 25.1 µM in data set [2] (veroe6/tmprss2); 12.1 µM in data set [5] (setting [9]). In data set [1], this compound displayed a CC10 of 19.011 µM.
For `C[C@@]1(O)[C@H](O)[C@@H](CO)O[C@H]1n1ccc2c(N)ncnc21` [BETA-2'-C-METHYL-7-DEAZA-ADENOSINE], the CC50 in data set [3] (Vero E6 miRFP670 cells) is greater than 50 µM; in data set [4] (vero c1008, p-gp concentration 100 nM), greater than 50 µM; in data set [4] (setting [10]), greater than 200 µM; in data set [1], greater than 10 µM; in data set [2] (setting [7]), greater than 10 µM; in data set [5] (vero c1008), 24.6 µM and > 200 µM. This compound also registered a CC10 in data set [1] greater than 10 µM.
As for `NCc1ccc(-c2ncc(OCC3CCNCC3)nc2-c2ccc(C3CCOCC3)cc2)cc1`, the values for the CC50 in data set [6] and in data set [5] (setting [9]) were 32 µM and greater than 10 µM, respectively.
Turning to `CCCCCC(=O)N[C@H](C(=O)NCc1cccc(CN)c1)c1ccc(OCc2ccccc2)cc1`, the CC50 stood at 18 µM in data set [6] and 2.32 µM in data set [5] (setting [9]).
In the case of `CCCCCC(=O)N[C@H](C(=O)Nc1ccc(C(N)=O)cc1)c1ccc(OCc2ccccc2)cc1`, the CC50 is 32 µM in data set [6] and greater than 10 µM in data set [5] (setting [9]).
Take `c1ccc2sc(C3CCN(Cc4c[nH]c5ccccc45)CC3)nc2c1`: the CC50 was 49.2 µM in data set [2] (setting [7]), greater than 50 µM in data set [2] (veroe6/tmprss2), 18 µM in data set [6] and 5.31 µM in data set [5] (setting [9]).
Consider `Cc1cc(-c2ccc([C@@H](NC(=O)OCc3ccccc3)C(=O)Nc3cccc(CN)c3)cc2)cs1`, for which the half-maximal cytotoxic concentration (CC50) in data set [1] is 6.25 µM; in data set [2] (setting [7]), 21.2 µM. In addition, the CC10 in data set [1] turned out to be 7.281 µM; in data set [2] (veroe6/tmprss2), 0.089 µM.
For the compound `CC(C)NC(=O)[C@H](Nc1ccc2c(c1)CNC2)c1cc(Cl)cc2[nH]ncc12`, the CC50 in data set [3] (Vero E6 miRFP670 cells) was greater than 50 µM; in data set [4] (setting [8]), greater than 50 µM; in data set [4] (setting [10]), 47.7 µM; in data set [2] (setting [7]) it was greater than 50 µM; in data set [5] (vero c1008), > 50 µM and 7.69 µM and 29 µM. Further, the CC10 in data set [2] (veroe6/tmprss2) is greater than 50 µM.
Turning to `O=C(O)c1cc2cc(-c3cc(Cl)cc(C4CC4)c3)ccc2[nH]1`, the CC50 in data set [3] (Vero E6 miRFP670 cells) worked out at 40.7 µM; in data set [4] (setting [8]) it was 35.5 µM; in data set [5] (setting [9]), 26.5 µM.
Turning to `Cc1[nH]c2ccccc2c1CN1CCC(c2c[nH]c3ncccc23)CC1`, the CC50 in data set [3] (Vero E6 miRFP670 cells) was 25.2 µM; in data set [1] it was greater than 50 µM; in data set [2] (setting [7]) it was greater than 10 µM; in data set [5] (setting [9]) it was 31 µM. For the same compound, the CC10 in data set [1] is greater than 50 µM.
As to `NCCc1ccc([C@H]2C[C@@H]2c2cc(Cl)cc(NC(=O)OCc3ccccc3)c2)cc1`, the 50% cytotoxic concentration (CC50) in data set [3] (Vero E6 miRFP670 cells) came out at 2.43 µM; in data set [4] (setting [8]), 5.78 µM; in data set [5] (vero c1008), 4.57 µM; in data set [5] (setting [9]), 5.29 µM.
Take `O=C1Cc2c(cccc2C(=O)Nc2ccc3c(c2)CNC3)N1`: the CC50 in data set [3] (Vero E6 miRFP670 cells), in data set [4] (setting [8]) and in data set [5] (setting [9]) was greater than 50 µM in each case.
In the case of `COc1cc(Cc2c(-c3ccc(F)cc3)noc2C)nc(N2CCNCC2)n1`, the figures for the CC50 in data set [6] and in data set [5] (setting [9]) were 18 µM and greater than 10 µM, respectively.
As to `CCc1cc(Br)cc2c(Cc3ccc(-c4nnn[nH]4)cc3)c[nH]c12`, the CC50 worked out at 19.4 µM in data set [3] (Vero E6 miRFP670 cells); 17.9 µM in data set [3] (vero c1008); 21.7 µM in data set [4] (setting [8]); 18.6 µM in data set [5] (vero c1008); 23.1 µM in data set [5] (setting [9]).
Consider `Cc1cc(CN)cc(NC(=O)c2cc(Cl)cc(NC(=O)OCc3ccccc3)c2)c1`, for which the CC50 is 7.97 µM in data set [1], greater than 10 µM in data set [2] (setting [7]) and 16.6 µM in data set [2] (veroe6/tmprss2). The CC10 in data set [1] amounted to 8.014 µM.
As for `NCCCc1cccc(NC(=O)c2cc(Cl)cc(NC(=O)OCc3ccccc3)c2)n1`, the CC50 in data set [3] (Vero E6 miRFP670 cells) came to 4.43 µM; in data set [1] it was 6.18 µM; in data set [2] (setting [7]), 14.9 µM. The CC10 amounted to 6.788 µM in data set [1] and 0.527 µM in data set [2] (veroe6/tmprss2).
For the compound `Cc1ccc(NC(=O)c2cc(Cl)cc(NC(=O)OCc3ccccc3)c2)cc1CN`, the cytotoxic concentration (CC50) stood at 5.18 µM in data set [3] (Vero E6 miRFP670 cells); 5.8 µM in data set [4] (setting [8]); 6.64 µM in data set [1]; 15 µM in data set [2] (setting [7]); 15.2 µM in data set [2] (veroe6/tmprss2); 4.33 µM in data set [5] (setting [9]). For the same compound, the CC10 in data set [1] was 8.104 µM.
In the case of `NCCc1cccc(NC(=O)[C@H]2[C@H]3CCCCC[C@H]3[C@H]2NC(=O)OCc2ccccc2)c1`, the CC50 in data set [3] (Vero E6 miRFP670 cells) turned out to be 7.48 µM; in data set [1] it was 1.78 µM; in data set [2] (setting [7]), 4.88 µM; in data set [5] (setting [9]) it was 7.53 µM. The CC10 in data set [1] worked out at 2.002 µM; in data set [2] (veroe6/tmprss2), 0.282 µM.
In the case of `C#C[C@@]1(O)[C@H](O)[C@@H](CO)O[C@H]1n1ccc2c(N)ncnc21`, the CC50 in data set [3] (Vero E6 miRFP670 cells) is greater than 50 µM; in data set [4] (setting [8]) it was greater than 50 µM; in data set [4] (setting [10]), 38 µM; in data set [5] (vero c1008), 40.4 µM and 28.2 µM; in data set [5] (setting [9]), greater than 50 µM.
In the case of `NCc1cccc(C(=O)Nc2cc(Cl)cc(NC(=O)OCc3ccccc3)c2)c1`, the CC50 in data set [1] is 6.67 µM; in data set [2] (setting [7]), greater than 10 µM; in data set [2] (veroe6/tmprss2) it was 19.3 µM. The CC10 in data set [1] stood at 8.366 µM.
On to `CC[C@@H](Cc1nnn[nH]1)c1ccc(NC(=O)c2cc(Cl)cc(NC(=O)OCc3ccccc3)c2)cc1`, for which the CC50 in data set [3] (Vero E6 miRFP670 cells), in data set [1], in data set [2] (setting [7]) and in data set [5] (setting [9]) was greater than 50 µM throughout. For the same compound, the CC10 in data set [1] and in data set [2] (veroe6/tmprss2) was greater than 50 µM each time.
With `CCCCCC(=O)N[C@H](C(=O)N1CCCCC1)c1ccc(OCc2ccccc2)cc1`, the CC50 in data set [6] is 19 µM; in data set [5] (setting [9]), greater than 10 µM.
For `CCCCCC(=O)N[C@H](C(=O)Nc1ccc2[nH]ncc2c1)c1ccc(OCc2ccccc2)cc1` the same measures were 32 µM and greater than 10 µM.
For `NCc1cccc(NC(=O)[C@@H](NC(=O)OCc2ccccc2)c2ccc(OCc3ccccc3)cc2)c1` the same measures were 18 µM and 5.95 µM.
On to `O=C(Nc1cc(Cl)cc(-c2ccc3cc(C(=O)O)[nH]c3c2)c1)OCc1ccccc1`, for which the CC50 is less than 0.391 µM in data set [3] (Vero E6 miRFP670 cells), 38.1 µM in data set [4] (setting [8]) and 24.8 µM in data set [5] (setting [9]).
For `O=C(O)c1cc(Cl)ccc1NS(=O)(=O)c1ccc(Oc2ccccc2Cl)cc1`, in data set [1], the CC50 was greater than 50 µM and the CC10 is greater than 50 µM.
On to `O=C(Nc1cc(Cl)cc(C(=O)Nc2cccc(-n3nn[nH]c3=O)c2)c1)OCc1ccccc1`, for which the CC50 in data set [3] (Vero E6 miRFP670 cells), in data set [1] and in data set [5] (setting [9]) was greater than 50 µM in each case. In data set [1], the CC10 was greater than 50 µM.

The term CC50 denotes the concentration giving 50% cytotoxicity.
